{"source": "patent US20220175758A1", "about": "“COMPOSITIONS AND METHODS TO TREAT NON-ALCOHOLIC FATTY LIVER DISEASES (NAFLD)” (Coherus Biosciences, Inc., priority 2019, published 2022)", "origin": "cited, not measured here", "conditions": "monotherapy", "data": [{"smiles": "Cc1cc(F)c(C(=O)Nc2cccc(-c3nncn3C(C)C)n2)cc1-n1cnc(C2CC2)c1", "note": "[selonsertib]", "values": [{"measurement": "primary endpoint of the STELLAR-4 phase 3 clinical trial", "value": "failed to meet the primary endpoint"}]}]}
